Series [1] is described as follows: Influencing factor test of the bulk drug. Format: physicochemical. The conditions noted are these: high temperature or illumination.
The conditions of series [2]: acids, alkalis, oxidation or high temperature.
Series [3] can be described thus: Pharmacokinetic study in cynomolgus monkeys after single subcutaneous or intravenous injection. It is filed as in vivo. How it is done: The administration doses for 4 groups, i.e., intravenous injection group, low-dose subcutaneous injection group, medium-dose subcutaneous group and high-dose subcutaneous injection group, were 0.1, 0.03, 0.1, and 0.3 mg/kg, respectively, all by single administration.

This is an account of results in patent US20250170218A1, “STABLE PHARMACEUTICAL COMPOSITION OF RECEPTOR AGONIST, AND PREPARATION METHOD AND APPLICATION THEREOF” (JIANGSU HANSOH PHARMACEUTICAL GROUP CO., LTD., priority 2022, published 2025).

Each structure is given as a SMILES string. Where two headings read alike, the source gives them in different places. Numbered stars: 1 amine (or outer) side, 2 acyl side, 3 side chain; on linkers, the order of the positions; unused ones are H or OH. Square brackets hold non-standard residues; d marks the D form. Side chains are listed from the residue outwards. Peptide text beside a SMILES is read from it. * marks the point of attachment. ξ: configuration not given here. C20 diacid = O=C(O)CCCCCCCCCCCCCCCCCCC(=O)*; γGlu = O=C(O)[C@H](CCC(=O)[*:2])N[*:1]; AEEA = NCCOCCOCC(=O)O; Aib = CC(C)(N)C(=O)O; ξP = O=C(O)C1CCCN1

Turning to `CC[C@H](C)[C@H](NC(=O)[C@H](CCCCN)NC(=O)[C@H](CCC(=O)O)NC(=O)[C@H](CC(C)C)NC(=O)[C@H](Cc1ccc(O)cc1)NC(=O)[C@@H](NC(=O)[C@H](CO)NC(=O)[C@H](Cc1ccc(O)cc1)NC(=O)[C@H](CC(=O)O)NC(=O)[C@H](CO)NC(=O)[C@@H](NC(=O)[C@H](Cc1ccccc1)NC(=O)[C@@H](NC(=O)CNC(=O)[C@H](CCC(=O)O)NC(=O)C(C)(C)NC(=O)[C@@H](N)Cc1ccc(O)cc1)[C@@H](C)O)[C@@H](C)O)[C@@H](C)CC)C(=O)N[C@@H](C)C(=O)N[C@@H](C)C(=O)N[C@@H](CCC(N)=O)C(=O)N[C@@H](CCC(=O)O)C(=O)N[C@@H](Cc1ccccc1)C(=O)N[C@H](C(=O)N[C@@H](CC(N)=O)C(=O)N[C@@H](Cc1c[nH]c2ccccc12)C(=O)N[C@@H](CC(C)C)C(=O)N[C@@H](CC(C)C)C(=O)N[C@@H](C)C(=O)NCC(=O)NCC(=O)N1CCCC1C(=O)N[C@@H](CO)C(=O)N[C@@H](CO)C(=O)NCC(=O)N[C@@H](C)C(=O)N1CCC[C@H]1C(=O)N1CCCC1C(=O)N1CCC[C@H]1C(=O)N[C@@H](CO)C(=O)N[C@@H](CCCCNC(=O)COCCOCCNC(=O)COCCOCCNC(=O)CC[C@H](NC(=O)CCCCCCCCCCCCCCCCCCC(=O)O)C(=O)O)C(N)=O)C(C)C` (some centres unmarked) [Active ingredient] (H-Y[Aib]EGTFTSDYSIYLEKIAAQEFVNWLLAGG[ξP]SSGAP[ξP]PSK([AEEA-AEEA-γGlu-C20 diacid])-NH2), in series [1], the “polymer in influencing factor test” value is “polymer growth”. Also, the “degradation in stressing test” value in series [2] is “significant degradations”. Besides, the “exposure (AUClast) in animals of different sexes” value in series [3] is on record as “no statistical difference”. Further, the Vd in series [3] (cynomolgus monkey, in vivo, intravenous, 0.1 mg/kg, single, read-out: apparent volume of distribution Vd) was in the range of 0.066 to 0.0681 L/kg. In series [3] (cynomolgus monkey, in vivo, intravenous, 0.1 mg/kg, single, read-out: clearance CL), the clearance was 21.4 to 22.3 mL/day/kg. Besides, the half-life in series [3] (cynomolgus monkey, in vivo, intravenous, 0.1 mg/kg, single, read-out: elimination half-life t1/2) is 50.7 to 51.5 h; in series [3] (cynomolgus monkey, in vivo, sc, single subcutaneous injection, read-out: elimination half-life T1/2) it was 48.9 to 65.4 h. In addition, in series [3] (cynomolgus monkey, in vivo, sc, single subcutaneous injection, read-out: time to peak drug concentration Tmax), the Tmax was 13.3 to 18 h.
